Measurements: ChEMBL document CHEMBL5055685, “Discovery of the First Potent IDO1/IDO2 Dual Inhibitors: A Promising Strategy for Cancer Immunotherapy” (J Med Chem, 2021)
Calls of active or inactive are those of the source. The calls are words filed in the database; no cut-off is given here.

Tests used:
PBMC = assay: Inhibition of IDO1/IDO2 in IFNgamma/LPS-stimulated human PBMCs assessed as reduction in kynurenine formation at 0.0001 to 10 uM pretreated with compound for 15 mins followed by IFNgamma/LPS stimulation by LC-MS/MS analysis; format: tissue-based; conditions: dose 0.0001-10 µM
CT26 = assay: Cytotoxicity against mouse CT26 cells assessed as reduction in cell viability by CCK8 assay; format: functional, cell-based
[1] = Cmax in Sprague-Dawley rat at 50 mg/kg, po; format: ADME, organism-based; parameters: dose 50 mg/kg, route po; conditions: in vivo
[2] = Metabolic stability in monkey liver microsomes assessed as rate constant; format: ADME, Macaca mulatta, Microsome; conditions: rhesus monkey
[3] = Half life in dog liver microsomes assessed as rate constant; format: ADME, Canis lupus familiaris, Microsome
[4] = Clearance in rat liver microsomes; format: ADME, Microsome; conditions: read-out: CLH
Mus musculus = assay: In vivo inhibition of IDO2 in BALB/c mouse xenografted with human HCT-116 cells assessed as suppression of IDO2 mRNA expression in tumor by quantitative RT-PCR analysis; format: functional, organism-based
[5] = biological target: Tyrosine-protein kinase ABL2 (Homo sapiens) (UniProt P42684); assay: Inhibition of ABL2 (unknown origin) at 1 uM
[6] = biological target: Activin receptor type-1B (Homo sapiens) (UniProt P36896); assay: Inhibition of ALK4 (unknown origin) at 1 uM
[7] = biological target: TGF-beta receptor type-1 (Homo sapiens) (UniProt P36897); assay: Inhibition of ALK5 (unknown origin) at 1 uM
[8] = biological target: Protein-tyrosine kinase 6 (Homo sapiens) (UniProt Q13882); assay: Inhibition of BRK (unknown origin) at 1 uM
[9] = biological target: Calcium/calmodulin-dependent protein kinase kinase 2 (Homo sapiens) (UniProt Q96RR4); assay: Inhibition of CAMKK2 (unknown origin) at 1 uM
[10] = biological target: Casein kinase I isoform alpha (Homo sapiens) (UniProt P48729); assay: Inhibition of CK1a1 (unknown origin) at 1 uM
[11] = biological target: Serine/threonine-protein kinase MRCK gamma (Homo sapiens) (UniProt Q6DT37); assay: Inhibition of DMPK2 (unknown origin) at 1 uM
[12] = biological target: Receptor tyrosine-protein kinase erbB-2 (Homo sapiens) (UniProt P04626); assay: Inhibition of ERBB2 (unknown origin) at 1 uM
[13] = biological target: Mitogen-activated protein kinase 1 (Homo sapiens) (UniProt P28482); assay: Inhibition of ERK2 (unknown origin) at 1 uM
[14] = biological target: Mitogen-activated protein kinase 15 (Homo sapiens) (UniProt Q8TD08); assay: Inhibition of ERK7 (unknown origin) at 1 uM
Chain of Mitogen-activated protein kinase 15 (Homo sapiens) (Q8TD08 whole entry): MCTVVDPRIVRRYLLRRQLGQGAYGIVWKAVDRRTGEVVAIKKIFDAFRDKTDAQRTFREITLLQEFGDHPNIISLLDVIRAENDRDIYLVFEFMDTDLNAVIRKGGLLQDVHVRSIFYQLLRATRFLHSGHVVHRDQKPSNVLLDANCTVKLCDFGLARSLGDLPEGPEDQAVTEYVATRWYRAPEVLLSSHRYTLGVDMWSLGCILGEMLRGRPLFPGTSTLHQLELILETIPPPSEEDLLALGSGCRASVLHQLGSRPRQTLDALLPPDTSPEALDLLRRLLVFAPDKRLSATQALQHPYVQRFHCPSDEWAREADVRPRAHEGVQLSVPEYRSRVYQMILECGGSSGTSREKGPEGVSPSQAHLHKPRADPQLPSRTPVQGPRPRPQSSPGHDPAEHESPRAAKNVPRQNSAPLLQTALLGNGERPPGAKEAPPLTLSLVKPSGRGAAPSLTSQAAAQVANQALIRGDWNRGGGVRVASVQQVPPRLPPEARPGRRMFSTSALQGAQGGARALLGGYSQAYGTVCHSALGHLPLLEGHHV

[15] = biological target: Serine/threonine-protein kinase/endoribonuclease IRE1 (Homo sapiens) (UniProt O75460); assay: Inhibition of ERN1 (unknown origin) at 1 uM
[16] = biological target: Macrophage colony-stimulating factor 1 receptor (Homo sapiens) (UniProt P07333); assay: Inhibition of FMS (unknown origin) at 1 uM
Chain of Macrophage colony-stimulating factor 1 receptor (Homo sapiens) (P07333 whole entry): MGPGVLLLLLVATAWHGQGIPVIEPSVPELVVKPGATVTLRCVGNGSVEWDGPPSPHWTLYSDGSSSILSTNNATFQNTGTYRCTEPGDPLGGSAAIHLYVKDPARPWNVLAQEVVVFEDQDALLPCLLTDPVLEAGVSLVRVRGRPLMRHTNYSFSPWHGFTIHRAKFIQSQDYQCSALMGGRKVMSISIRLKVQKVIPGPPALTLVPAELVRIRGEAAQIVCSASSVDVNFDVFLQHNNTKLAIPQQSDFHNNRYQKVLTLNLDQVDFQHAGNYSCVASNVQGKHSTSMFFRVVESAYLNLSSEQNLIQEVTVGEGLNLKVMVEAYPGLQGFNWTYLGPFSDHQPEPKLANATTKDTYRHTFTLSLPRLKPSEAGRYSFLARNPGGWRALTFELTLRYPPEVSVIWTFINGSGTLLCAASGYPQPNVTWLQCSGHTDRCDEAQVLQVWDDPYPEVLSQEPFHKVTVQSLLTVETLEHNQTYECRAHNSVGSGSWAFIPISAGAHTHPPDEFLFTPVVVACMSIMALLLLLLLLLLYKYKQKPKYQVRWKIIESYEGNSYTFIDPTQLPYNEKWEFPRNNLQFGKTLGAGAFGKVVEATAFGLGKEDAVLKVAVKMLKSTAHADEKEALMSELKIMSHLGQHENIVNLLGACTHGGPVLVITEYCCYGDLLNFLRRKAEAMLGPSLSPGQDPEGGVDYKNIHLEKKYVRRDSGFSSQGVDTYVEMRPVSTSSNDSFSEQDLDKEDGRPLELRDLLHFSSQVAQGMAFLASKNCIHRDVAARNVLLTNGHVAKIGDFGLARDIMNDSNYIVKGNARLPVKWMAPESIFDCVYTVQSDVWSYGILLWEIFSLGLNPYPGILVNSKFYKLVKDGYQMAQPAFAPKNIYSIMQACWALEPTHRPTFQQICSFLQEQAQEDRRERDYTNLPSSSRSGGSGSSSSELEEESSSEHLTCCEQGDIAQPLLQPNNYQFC

[17] = biological target: Rhodopsin kinase GRK7 (Homo sapiens) (UniProt Q8WTQ7); assay: Inhibition of GRK7 (unknown origin) at 1 uM
[18] = biological target: Glycogen synthase kinase-3 alpha (Homo sapiens) (UniProt P49840); assay: Inhibition of GSK3A (unknown origin) at 1 uM
[19] = biological target: Inhibitor of nuclear factor kappa-B kinase subunit epsilon (Homo sapiens) (UniProt Q14164); assay: Inhibition of IKKepsilon (unknown origin) at 1 uM
Chain of Inhibitor of nuclear factor kappa-B kinase subunit epsilon (Homo sapiens) (Q14164 whole entry): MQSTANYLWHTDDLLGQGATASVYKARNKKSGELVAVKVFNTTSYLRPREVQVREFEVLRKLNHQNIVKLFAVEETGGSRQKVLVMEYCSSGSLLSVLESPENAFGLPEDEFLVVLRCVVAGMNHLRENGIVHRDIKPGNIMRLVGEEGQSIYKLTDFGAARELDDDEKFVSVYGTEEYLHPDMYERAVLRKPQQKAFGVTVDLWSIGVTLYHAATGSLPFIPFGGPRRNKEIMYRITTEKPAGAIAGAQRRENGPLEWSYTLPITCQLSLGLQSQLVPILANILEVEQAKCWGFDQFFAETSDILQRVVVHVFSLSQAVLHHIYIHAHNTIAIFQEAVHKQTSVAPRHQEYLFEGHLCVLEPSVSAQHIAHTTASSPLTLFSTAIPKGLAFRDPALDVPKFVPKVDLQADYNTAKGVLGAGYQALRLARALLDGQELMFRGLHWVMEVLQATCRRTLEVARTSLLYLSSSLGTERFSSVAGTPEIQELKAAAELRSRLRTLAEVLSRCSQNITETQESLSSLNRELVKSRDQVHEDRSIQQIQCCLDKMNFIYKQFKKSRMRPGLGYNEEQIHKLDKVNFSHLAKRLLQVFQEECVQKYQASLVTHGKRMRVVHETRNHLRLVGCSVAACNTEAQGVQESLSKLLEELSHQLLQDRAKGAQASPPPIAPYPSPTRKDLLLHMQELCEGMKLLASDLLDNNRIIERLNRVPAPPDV

[20] = biological target: Interleukin-1 receptor-associated kinase 4 (Homo sapiens) (UniProt Q9NWZ3); assay: Inhibition of IRAK4 (unknown origin) at 1 uM
[21] = biological target: Mitogen-activated protein kinase 9 (Homo sapiens) (UniProt P45984); assay: Inhibition of JNK2 (unknown origin) at 1 uM
[22] = biological target: Tyrosine-protein kinase Lck (Homo sapiens) (UniProt P06239); assay: Inhibition of LCK (unknown origin) at 1 uM
[23] = biological target: Serine/threonine-protein kinase ICK (Homo sapiens) (UniProt Q9UPZ9); assay: Inhibition of LCK2 (unknown origin) at 1 uM
[24] = biological target: LIM domain kinase 2 (Homo sapiens) (UniProt P53671); assay: Inhibition of LIMK2 (unknown origin) at 1 uM
[25] = biological target: Leucine-rich repeat serine/threonine-protein kinase 2 (Homo sapiens) (UniProt Q5S007); assay: Inhibition of LRRK2 (unknown origin) at 1 uM
[26] = biological target: MAP kinase-activated protein kinase 3 (Homo sapiens) (UniProt Q16644); assay: Inhibition of MAPKAPK3 (unknown origin) at 1 uM
Chain of MAP kinase-activated protein kinase 3 (Homo sapiens) (Q16644 whole entry, looked up): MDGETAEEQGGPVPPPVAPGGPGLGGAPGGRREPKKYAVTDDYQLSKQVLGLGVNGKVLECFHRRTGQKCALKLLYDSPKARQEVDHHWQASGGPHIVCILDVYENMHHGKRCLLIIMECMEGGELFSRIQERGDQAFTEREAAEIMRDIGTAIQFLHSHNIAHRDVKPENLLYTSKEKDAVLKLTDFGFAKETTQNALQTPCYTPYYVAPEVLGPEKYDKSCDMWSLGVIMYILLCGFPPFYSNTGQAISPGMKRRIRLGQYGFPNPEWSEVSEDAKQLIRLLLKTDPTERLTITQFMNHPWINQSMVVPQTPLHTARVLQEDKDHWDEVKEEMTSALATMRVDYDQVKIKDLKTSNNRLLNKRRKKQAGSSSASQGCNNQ

[27] = biological target: Dual specificity mitogen-activated protein kinase kinase 5 (Homo sapiens) (UniProt Q13163); assay: Inhibition of MEK5 (unknown origin) at 1 uM
[28] = biological target: Mitogen-activated protein kinase kinase kinase 9 (Homo sapiens) (UniProt P80192); assay: Inhibition of MLK1 (unknown origin) at 1 uM
Chain of Mitogen-activated protein kinase kinase kinase 9 (Homo sapiens) (P80192 whole entry, looked up): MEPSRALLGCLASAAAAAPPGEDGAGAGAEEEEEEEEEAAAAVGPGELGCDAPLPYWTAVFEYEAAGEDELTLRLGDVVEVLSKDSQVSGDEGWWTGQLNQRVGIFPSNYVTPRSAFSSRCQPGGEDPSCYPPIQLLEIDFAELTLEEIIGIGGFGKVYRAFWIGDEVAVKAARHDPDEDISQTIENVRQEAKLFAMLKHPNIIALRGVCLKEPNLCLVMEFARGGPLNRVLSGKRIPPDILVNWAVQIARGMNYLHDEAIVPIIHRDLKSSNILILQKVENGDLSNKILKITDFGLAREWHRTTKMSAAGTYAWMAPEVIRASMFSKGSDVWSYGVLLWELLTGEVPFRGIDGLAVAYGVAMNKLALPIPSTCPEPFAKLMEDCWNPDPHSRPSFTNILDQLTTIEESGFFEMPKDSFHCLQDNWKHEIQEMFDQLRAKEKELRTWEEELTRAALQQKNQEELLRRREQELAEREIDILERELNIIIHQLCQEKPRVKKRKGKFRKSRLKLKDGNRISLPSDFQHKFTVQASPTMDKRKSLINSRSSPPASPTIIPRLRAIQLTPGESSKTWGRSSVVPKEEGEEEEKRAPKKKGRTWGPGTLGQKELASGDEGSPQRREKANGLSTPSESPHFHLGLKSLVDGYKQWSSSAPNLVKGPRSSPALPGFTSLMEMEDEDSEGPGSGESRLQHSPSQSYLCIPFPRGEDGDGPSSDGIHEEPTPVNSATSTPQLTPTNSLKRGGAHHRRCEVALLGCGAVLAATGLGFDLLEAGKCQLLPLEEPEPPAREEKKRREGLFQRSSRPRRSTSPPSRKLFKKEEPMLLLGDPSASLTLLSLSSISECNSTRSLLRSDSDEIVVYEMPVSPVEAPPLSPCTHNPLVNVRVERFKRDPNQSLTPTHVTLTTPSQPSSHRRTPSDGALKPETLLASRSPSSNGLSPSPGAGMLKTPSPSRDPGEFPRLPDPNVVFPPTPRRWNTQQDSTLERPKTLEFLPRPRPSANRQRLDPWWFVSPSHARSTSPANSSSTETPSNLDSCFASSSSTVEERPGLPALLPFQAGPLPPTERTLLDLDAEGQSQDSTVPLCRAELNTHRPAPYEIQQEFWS

[29] = biological target: Serine/threonine-protein kinase 24 (Homo sapiens) (UniProt Q9Y6E0); assay: Inhibition of MST3 (unknown origin) at 1 uM
[30] = biological target: Serine/threonine-protein kinase Nek3 (Homo sapiens) (UniProt P51956); assay: Inhibition of NEK3 (unknown origin) at 1 uM
[31] = biological target: Platelet-derived growth factor receptor beta (Homo sapiens) (UniProt P09619); assay: Inhibition of PDGFRbeta (unknown origin) at 1 uM
[32] = biological target: cAMP-dependent protein kinase catalytic subunit alpha (Homo sapiens) (UniProt P17612); assay: Inhibition of PKA (unknown origin) at 1 uM
[33] = biological target: Protein kinase C beta type (Homo sapiens) (UniProt P05771); assay: Inhibition of PKCb2 (unknown origin) at 1 uM
[34] = biological target: Protein kinase C gamma type (Homo sapiens) (UniProt P05129); assay: Inhibition of PKCgamma (unknown origin)at 1 uM
[35] = biological target: Protein kinase C iota type (Homo sapiens) (UniProt P41743); assay: Inhibition of PKCiota (unknown origin)at 1 uM
[36] = biological target: cAMP-dependent protein kinase catalytic subunit PRKX (Homo sapiens) (UniProt P51817); assay: Inhibition of PRKX (unknown origin) at 1 uM
[37] = biological target: Serine/threonine-protein kinase SBK1 (Homo sapiens) (UniProt Q52WX2); assay: Inhibition of SBK1 (unknown origin) at 1 uM
[38] = biological target: Serine/threonine-protein kinase SIK1 (Homo sapiens) (UniProt P57059); assay: Inhibition of SIK1 (unknown origin) at 1 uM
Chain of Serine/threonine-protein kinase SIK1 (Homo sapiens) (P57059 whole entry): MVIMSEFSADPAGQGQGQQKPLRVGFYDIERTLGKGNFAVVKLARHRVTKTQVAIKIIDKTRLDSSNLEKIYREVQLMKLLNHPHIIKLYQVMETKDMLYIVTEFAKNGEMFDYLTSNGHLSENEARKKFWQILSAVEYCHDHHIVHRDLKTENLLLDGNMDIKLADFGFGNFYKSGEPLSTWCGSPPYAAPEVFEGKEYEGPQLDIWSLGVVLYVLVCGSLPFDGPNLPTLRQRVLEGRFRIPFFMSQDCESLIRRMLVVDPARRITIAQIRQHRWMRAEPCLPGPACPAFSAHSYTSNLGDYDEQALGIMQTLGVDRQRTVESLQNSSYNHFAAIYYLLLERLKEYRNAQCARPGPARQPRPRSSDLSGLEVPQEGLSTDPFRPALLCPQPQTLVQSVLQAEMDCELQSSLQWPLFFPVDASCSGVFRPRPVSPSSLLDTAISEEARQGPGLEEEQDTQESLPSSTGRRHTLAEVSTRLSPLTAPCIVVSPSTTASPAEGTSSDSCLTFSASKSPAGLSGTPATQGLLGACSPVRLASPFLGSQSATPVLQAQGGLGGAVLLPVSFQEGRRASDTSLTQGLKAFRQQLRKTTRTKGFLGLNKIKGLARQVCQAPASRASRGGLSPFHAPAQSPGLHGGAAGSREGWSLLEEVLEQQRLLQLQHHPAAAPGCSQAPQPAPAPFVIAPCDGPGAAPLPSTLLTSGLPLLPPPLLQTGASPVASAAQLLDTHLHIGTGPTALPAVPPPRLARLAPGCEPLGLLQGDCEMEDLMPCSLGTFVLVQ

[39] = biological target: Serine/threonine-protein kinase 16 (Homo sapiens) (UniProt O75716); assay: Inhibition of STK16 (unknown origin) at 1 uM
[40] = biological target: Testis-specific serine/threonine-protein kinase 1 (Homo sapiens) (UniProt Q9BXA7); assay: Inhibition of STK22D (unknown origin) at 1 uM
Chain of Testis-specific serine/threonine-protein kinase 1 (Homo sapiens) (Q9BXA7 whole entry): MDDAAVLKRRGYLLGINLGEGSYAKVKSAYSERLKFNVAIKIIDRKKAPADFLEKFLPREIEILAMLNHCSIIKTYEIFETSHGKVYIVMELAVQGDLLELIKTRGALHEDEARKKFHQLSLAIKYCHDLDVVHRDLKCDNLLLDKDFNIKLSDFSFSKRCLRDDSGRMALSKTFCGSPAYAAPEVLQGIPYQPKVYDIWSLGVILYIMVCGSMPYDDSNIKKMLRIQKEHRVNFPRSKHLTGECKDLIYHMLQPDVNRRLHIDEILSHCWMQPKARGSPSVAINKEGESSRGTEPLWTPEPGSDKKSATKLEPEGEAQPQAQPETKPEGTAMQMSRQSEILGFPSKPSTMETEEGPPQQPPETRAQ

[41] = biological target: Tau-tubulin kinase 1 (Homo sapiens) (UniProt Q5TCY1); assay: Inhibition of TTBK1 (unknown origin) at 1 uM
[42] = biological target: Death-associated protein kinase 3 (Homo sapiens) (UniProt O43293); assay: Inhibition of ZIPK (unknown origin) at 1 uM

In the case of `OCCOCc1cn(CCNc2nonc2/C(=N/O)Nc2ccc(F)c(Br)c2)nn1`, the inhibition (PBMC) is reported as “Active”, the IC50 (CT26) is reported as 62 µM and the Cmax [1] is reported as 1040 ng/mL. It also gave a k el [2] of 0.0003 s⁻¹, a half-life [3] of 5.66 min and a microsomal CLint [4] of 65.3 µL/min/mg. The inhibition (Mus musculus) was “Active”, the inhibition [5] was “inactive” and the inhibition [6] was “inactive”. For the same molecule, the inhibition [7] was “inactive”, the inhibition [8] was “inactive” and the inhibition [9] was “inactive”. The inhibition [10] was “inactive”, the inhibition [11] was “inactive” and the inhibition [12] was “inactive”. The inhibition [13] was “inactive”, the inhibition [14] was “inactive” and the inhibition [15] was “inactive”. The inhibition [16] was “inactive”, the inhibition [17] was “inactive” and the inhibition [18] was “inactive”. For the same molecule, the inhibition [19] was “inactive”, the inhibition [20] was “inactive” and the inhibition [21] was “inactive”. For the same molecule, the inhibition [22] was “inactive”, the inhibition [23] was “inactive” and the inhibition [24] was “inactive”. For the same molecule, the inhibition [25] was “inactive”, the inhibition [26] was “inactive” and the inhibition [27] was “inactive”. The inhibition [28] was “inactive”, the inhibition [29] was “inactive” and the inhibition [30] was “inactive”. The inhibition [31] was “inactive”, the inhibition [32] was “inactive” and the inhibition [33] was “inactive”. For the same molecule, the inhibition [34] was “inactive”, the inhibition [35] was “inactive” and the inhibition [36] was “inactive”. The inhibition [37] was “inactive”, the inhibition [38] was “inactive” and the inhibition [39] was “inactive”. For the same molecule, the inhibition [40] was “inactive”, the inhibition [41] was “inactive” and the inhibition [42] was “inactive”.
